# Reference: PubChem BioAssay (NCI)
#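 Briefly, cells in 96-well plates were exposed to five compound concentrations for 48 h, and endpoints were estimated by linear interpolation. TGI denotes the concentration required for complete inhibition of growth.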
# What was measured:
# Experiment in all cases: NCI tumour cell line growth inhibition, 48 h
# ACHN renal = test system: ACHN renal
# DLD-1 colon = test system: DLD-1 colon
# DMS 114 small cell lung = test system: DMS 114 small cell lung
# DMS 273 small cell lung = test system: DMS 273 small cell lung
# KM20L2 colon = test system: KM20L2 colon
# LXFL 529 NSCLC = test system: LXFL 529 NSCLC
# M19-MEL melanoma = test system: M19-MEL melanoma
# RXF-631 renal = test system: RXF-631 renal
# SNB-78 CNS = test system: SNB-78 CNS
# XF 498 CNS = test system: XF 498 CNS
# HOP-18 NSCLC = test system: HOP-18 NSCLC
# MDA-N = test system: MDA-N
# P388 leukemia = test system: P388 leukemia
# P388/ADR leukemia = test system: P388/ADR leukemia
# SN12K1 renal = test system: SN12K1 renal
SMILES,TGI (ACHN renal) [µM],TGI (DLD-1 colon) [µM],TGI (DMS 114 small cell lung) [µM],TGI (DMS 273 small cell lung) [µM],TGI (KM20L2 colon) [µM],TGI (LXFL 529 NSCLC) [µM],TGI (M19-MEL melanoma) [µM],TGI (RXF-631 renal) [µM],TGI (SNB-78 CNS) [µM],TGI (XF 498 CNS) [µM],TGI (HOP-18 NSCLC) [µM],TGI (MDA-N) [µM],TGI (P388 leukemia) [µM],TGI (P388/ADR leukemia) [µM],TGI (SN12K1 renal) [µM]
CN(C)c1ccc2c(=O)c3ccccc3oc2n1,> 100,> 100,> 100,> 100,> 100,> 100,> 100,> 100,> 100,> 100,,,,,
O=C1[C@@H]2C(c3ccccc3Br)=NO[C@@H]2C(=O)N1c1ccc(Cc2ccc(N3C(=O)[C@H]4C(c5ccccc5Br)=NO[C@H]4C3=O)cc2)cc1,> 100,> 100,> 100,> 100,> 100,> 100,> 100,> 100,> 100,> 100,> 100,,,,
COc1ccc(C2CC(=O)c3c(O)cc(O)cc3O2)cc1O (configuration not stated),> 100,> 100,> 100,> 100,> 100,> 100,> 100,> 100,> 100,> 100,,,,,
O=C[C@@H](CO)O[C@H](C=O)c1c[nH]c(=O)[nH]c1=O,719,493,232,265,310,,406,,890,86.7,267,307,307,373,183
COC(=O)C1=C(c2ccc(OC)c(OC)c2)OC(c2ccc(OC)c(OC)c2)C1 (configuration not stated),> 100,> 100,77.5,> 100,> 100,62.1,> 100,,> 100,65.2,> 100,,,,
COC(=O)[C@@]12C(=O)C=CC(=O)[C@@H]1C1C(=CC2COC(C)=O)O[C@@H]2OC3(CCCCC3)O[C@H]12 (some centres not stated),23.9,22.7,13.5,23.6,31.8,15,29.6,50,51,26.3,24.9,25.1,,,
Cc1ccc(S(=O)(=O)N[C@H](C(=O)O)c2ccccc2)cc1,> 100,> 100,,> 100,> 100,> 100,> 100,> 100,,> 100,> 100,,,,
COc1cccc2c1C(=O)C=CC2=O,10.5,39,10.3,30.8,30.6,6.37,16.1,,9.3,5.25,23.6,,,,
CC(NS(=O)(=O)c1ccc([N+](=O)[O-])cc1)C(=O)O (configuration not stated),> 100,> 100,,> 100,> 100,> 100,,> 100,,> 100,> 100,,,,
NC1=NC(=O)/C(=C/c2ccccc2[N+](=O)[O-])C(N)=N1,> 100,> 100,> 100,> 100,> 100,> 100,> 100,> 100,> 100,> 100,> 100,,,,
CC1CC(C2=CC=CCS2)=Nc2ccccc2S1 (configuration not stated),> 100,> 100,,> 100,> 100,> 100,> 100,> 100,> 100,> 100,> 100,,,,
COc1ccc(C(=O)c2cc(OC)c(OC)c(OC)c2)cc1,> 91.3,> 100,> 100,> 100,,> 100,> 100,> 100,,> 27.7,> 100,0.0452,,,
Cc1ccccc1NC(=O)C(=O)C(C#N)c1ccc(Cl)cc1 (configuration not stated),> 100,> 100,> 100,> 100,> 100,> 100,,> 100,> 100,> 100,> 100,,,,
O=C(Nc1ccc(Cl)cc1Cl)C1C(=O)N(c2ccc(Cl)cc2Cl)C(=O)/C1=N\Nc1ccc([N+](=O)[O-])cc1[N+](=O)[O-] (configuration not stated),> 100,> 100,66.8,> 100,> 100,> 100,> 100,> 100,> 100,,> 100,,,,
COc1cc(/C=C/c2ccncc2)cc(OC)c1OC,> 100,> 100,> 100,> 100,> 100,> 100,,> 100,> 100,91.3,> 100,,,,
CC1CC[C@]2(C(=O)O)CCC3(COC(=O)/C=C\c4ccc(O)cc4)C(=CCC4[C@@]5(C)CC[C@H](O)C(C)(C)C5CC[C@]43C)[C@@H]2[C@H]1C (some centres not stated),22.5,30.8,> 100,50.3,33.6,> 100,50.8,77.9,> 100,,69.8,,,,
Cc1c2cc[n+](C)cc2c(C)c2c1sc1ccccc12,33.7,51.2,2.57,7,31.8,5.13,4.04,14.4,8.41,2.69,36.2,11.3,,,
COc1c(C=O)c2c(c(OC)c1OC)-c1ccc(OC)c(=O)cc1[C@@H](NC(C)=O)CC2,> 100,> 100,0.0364,> 100,0.218,> 100,> 100,18.2,> 67.6,37,> 100,,,,
